# Laboratory results as given in patent US8202910B2 (Sequella, Inc., priority 2006, dated 2012).
# Entries after “also recorded” stand apart in the source; their conditions may differ.
# How the values were obtained:
# human CYP2D6 = human CYP2D6 (Homo sapiens, UniProt P10635); test: Metabolism by CYP2D6; format: in vitro ADME
# Text: Two of the groups contained oxidized metabolites. […] Based on the finding that SQ109 was metabolized rapidly by CYP, it is possible that its antimycobacterial activity may come from one of its metabolites. It is conceivable that SQ109 is a prodrug and requires activation by mycobacterial CYP. We speculate that when SQ109 is used in combination with rifampicin, the latter induces certain CYP activity within the Mycobacteria. Elevated CYP activity activates the SQ109 prodrug more efficiently, resulting in an apparent synergistic activity of the two drugs.
# M. tuberculosis H37Rv = test: Two-drug combination growth inhibition, BACTEC 460, x/y quotient; format: cell-based; conditions: for interaction of SQ109 with isoniazid: both drugs at 0.5 MIC
# cells = test: LD50 for selectivity index (Table 10); format: cell-based, Mycobacterium tuberculosis
# Text: Table 10 lists MIC and LD50 data for selected compounds. […] Table 11 lists MIC data for purified substituted ethylene diamines in comparison to ethambutol (EMB).
# M. tuberculosis [MTB] = test: Spectrum of activity MIC, BACTEC 460 TB system; format: cell-based; conditions: Mycobacterium tuberculosis
# [1] = target: T1, Serotonin 5-HT transporter (Homo sapiens, UniProt P31645); test: CEREP transporter binding, 5-HT; conditions: tested at 10 μM; read-out: inhibition of control specific binding
# T1 construct: CEREP (contract testing)
# T1 sequence (P31645 whole entry): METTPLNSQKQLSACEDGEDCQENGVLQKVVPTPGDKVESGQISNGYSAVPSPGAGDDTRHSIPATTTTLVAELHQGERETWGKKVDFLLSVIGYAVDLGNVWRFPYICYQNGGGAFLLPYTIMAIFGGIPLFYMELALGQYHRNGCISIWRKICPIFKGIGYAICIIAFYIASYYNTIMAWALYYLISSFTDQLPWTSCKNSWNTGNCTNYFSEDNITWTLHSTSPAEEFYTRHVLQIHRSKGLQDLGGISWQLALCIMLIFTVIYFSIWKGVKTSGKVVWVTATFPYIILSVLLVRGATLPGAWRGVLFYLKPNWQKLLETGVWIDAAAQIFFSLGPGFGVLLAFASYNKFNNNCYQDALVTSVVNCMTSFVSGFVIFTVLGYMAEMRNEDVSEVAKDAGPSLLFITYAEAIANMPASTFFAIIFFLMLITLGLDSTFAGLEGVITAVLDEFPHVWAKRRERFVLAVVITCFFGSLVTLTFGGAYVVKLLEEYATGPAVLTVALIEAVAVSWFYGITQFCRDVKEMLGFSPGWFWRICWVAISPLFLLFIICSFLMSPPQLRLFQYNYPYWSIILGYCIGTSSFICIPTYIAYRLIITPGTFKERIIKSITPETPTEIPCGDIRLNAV
# Text: (§1) In vitro testing for safety pharmacology and early ADMET (Absorption, Distribution, Metabolism, Excretion, Toxicity) studies of compound 109 were contracted out to CEREP (15318 NE 95th Street, Redmond, Wash., 98052, USA www.cerep.com) under a service agreement and included evaluation of inhibitory binding to a panel of 27 standard receptors and three transporters (See FIG. 60 (Table 31) and FIG. 61 (Table 32)) which included: adenosine receptors (A1 and A2A), adrenergic receptors (alpha 1, alpha 2, beta 1), angiotensin II receptor (AT1), benzodiazapene receptor (BZD), bradykinin receptor (B2), cholecystokinin receptor (CCK1), dopamine receptors (D1, D2S), endothelin receptor (ETA), GABA receptor (GABA), glutamate receptor (NMDA), histamine receptor (H1 central), melanocortin receptor (MC4), muscarinic receptor (M, non-selective), neurokinin receptor (NK1), neuropeptide Y receptor (Y), nicotinic receptor (neuronal, alpha-BGTX-insensitive), opiate receptor (non-selective opiate), orphanin receptor (ORL1), phencyclidine receptor (PCP), serotonin receptor (5-HT), sigma receptor (sigma non-selective), steroid receptor (glucocorticoid receptor, GR), and NE, DA, and 5-HT transporters.
# (§2) The specific ligand binding to the receptors is defined as the difference between the total binding and the nonspecific binding determined in the presence of an excess of unlabelled ligand.
# [2] = test system: Propionibacterium acnes, Bacteroides fragilis, and Clostridium difficile; test: Spectrum of activity MIC (NCCLS), anaerobes; format: cell-based
# Procedure: (§3) Compound 109 was tested against a representative panel of commonly encountered clinical microorganisms comprising opportunistic pathogens, target pathogens and normal human flora. The spectrum of activity of compound 109 was evaluated by performing antimicrobial susceptibility testing against a collection of aerobic and anaerobic bacteria, fungi, and mycobacteria. MICs for all organisms were established using the appropriate NCCLS (National Committee for Clinical Laboratory Standards) recommended standard methods and quality control strains.
# Staphylococci = test: Spectrum of activity MIC (NCCLS); format: cell-based; conditions: all Staphylococci tested
# Procedure: as §3
# Haemophilus influenzae = test: Spectrum of activity MIC (NCCLS); format: cell-based; conditions: three isolates
# Procedure: as §3
# enterococci = test: Spectrum of activity MIC (NCCLS); format: cell-based; conditions: all species of enterococci tested
# Procedure: as §3
# Streptococcus pneumoniae = test: Spectrum of activity MIC (NCCLS); format: cell-based
# Procedure: as §3
# Helicobacter pylori = test: Spectrum of activity MIC (NCCLS); format: cell-based; conditions: all three strains tested
# Procedure: as §3
# M. smegmatis = test: Spectrum (unpublished data); format: cell-based
# Aspergillus fumigatus = test: Spectrum of activity MIC, broth microdilution NCCLS M38-A (mold); format: cell-based; conditions: three isolates
# Procedure: Compound 109 was tested against a representative panel of commonly encountered clinical microorganisms comprising opportunistic pathogens, target pathogens and normal human flora. The spectrum of activity of compound 109 was evaluated by performing recommended broth microdilution methods. NCCLS M27-A2, 2003 for yeast and NCCLS M38-A, 2003 for mold.
# [3] = test system: opiate receptor (non-selective opiate); test: CEREP receptor binding, opiate; conditions: tested at 10 μM
# Text: as §1, §2
# [4] = sub-MIC concentrations, listed as SQ109
# human CYP2D6, sequence (P10635 whole entry): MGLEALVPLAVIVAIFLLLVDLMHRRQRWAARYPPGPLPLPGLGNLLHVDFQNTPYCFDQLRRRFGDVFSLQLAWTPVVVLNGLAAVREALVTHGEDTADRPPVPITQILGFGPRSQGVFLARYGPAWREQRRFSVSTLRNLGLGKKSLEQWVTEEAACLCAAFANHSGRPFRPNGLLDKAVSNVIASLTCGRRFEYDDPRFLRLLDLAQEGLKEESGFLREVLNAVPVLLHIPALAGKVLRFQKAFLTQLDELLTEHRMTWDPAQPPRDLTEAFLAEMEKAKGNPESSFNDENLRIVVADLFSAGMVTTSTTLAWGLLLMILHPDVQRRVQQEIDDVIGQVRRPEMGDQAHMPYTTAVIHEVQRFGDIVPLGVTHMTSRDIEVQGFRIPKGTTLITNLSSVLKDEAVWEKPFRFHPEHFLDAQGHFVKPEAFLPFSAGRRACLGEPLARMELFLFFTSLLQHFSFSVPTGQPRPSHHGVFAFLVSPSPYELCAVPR
structure (smiles),measurement,setting,value
"CC(C)=CCC/C(C)=C/CNCCNC1C2CC3CC(C2)CC1C3 (stereo not drawn) [Compound 109, N-Geranyl-N′-(2-adamanthyl)ethane-1,2-diamine]",metabolism by CYP,human CYP2D6,metabolized
same,growth inhibition of inoculum,M. tuberculosis H37Rv; 0.5 MIC SQ109 in combination with 0.1 MIC RIF,greater than 99%
same,Synergy quotient (x/y),M. tuberculosis H37Rv; SQ109 1/10 MIC + INH ½ MIC,1
same,Synergy quotient (x/y),M. tuberculosis H37Rv; SQ109 1/10 MIC + MOX ½ MIC,1
same,Synergy quotient (x/y),M. tuberculosis H37Rv; SQ109 1/10 MIC + MOX ⅕ MIC,1
same,Synergy quotient (x/y),M. tuberculosis H37Rv; SQ109 1/10 MIC + RIF 1/10 MIC,1
same,Synergy quotient (x/y),M. tuberculosis H37Rv; SQ109 1/10 MIC + RIF 1/20 MIC,1
same,Synergy quotient (x/y),M. tuberculosis H37Rv; SQ109 1/10 MIC + RIF ¼ MIC,1
same,Synergy quotient (x/y),M. tuberculosis H37Rv; SQ109 1/10 MIC + RIF ½ MIC,0.16
same,Synergy quotient (x/y),M. tuberculosis H37Rv; SQ109 1/10 MIC + SM ½ MIC,0.98
same,Synergy quotient (x/y),M. tuberculosis H37Rv; SQ109 1/20 MIC + INH ½ MIC,1
same,Synergy quotient (x/y),M. tuberculosis H37Rv; SQ109 1/20 MIC + MOX ½ MIC,1
same,Synergy quotient (x/y),M. tuberculosis H37Rv; SQ109 1/20 MIC + MOX ⅕ MIC,1
same,Synergy quotient (x/y),M. tuberculosis H37Rv; SQ109 1/20 MIC + RIF 1/10 MIC,1
same,Synergy quotient (x/y),M. tuberculosis H37Rv; SQ109 1/20 MIC + RIF 1/20 MIC,1
same,Synergy quotient (x/y),M. tuberculosis H37Rv; SQ109 1/20 MIC + RIF ¼ MIC,1
same,Synergy quotient (x/y),M. tuberculosis H37Rv; SQ109 1/20 MIC + RIF ½ MIC,0.32
same,Synergy quotient (x/y),M. tuberculosis H37Rv; SQ109 1/20 MIC + SM ½ MIC,1
same,Synergy quotient (x/y),M. tuberculosis H37Rv; SQ109 ½ MIC + INH ½ MIC,0.45
same,Synergy quotient (x/y),M. tuberculosis H37Rv; SQ109 ½ MIC + MOX ½ MIC,0.45
same,Synergy quotient (x/y),M. tuberculosis H37Rv; SQ109 ½ MIC + MOX ⅕ MIC,0.51
same,Synergy quotient (x/y),M. tuberculosis H37Rv; SQ109 ½ MIC + RIF 1/10 MIC,0.29
same,Synergy quotient (x/y),M. tuberculosis H37Rv; SQ109 ½ MIC + RIF 1/20 MIC,0.61
same,Synergy quotient (x/y),M. tuberculosis H37Rv; SQ109 ½ MIC + RIF ¼ MIC,0.23
same,Synergy quotient (x/y),M. tuberculosis H37Rv; SQ109 ½ MIC + RIF ½ MIC,0.12
same,Synergy quotient (x/y),M. tuberculosis H37Rv; SQ109 ½ MIC + SM ½ MIC,0.57
same,Synergy quotient (x/y),M. tuberculosis H37Rv; SQ109 ⅕ MIC + INH ½ MIC,0.83
same,Synergy quotient (x/y),M. tuberculosis H37Rv; SQ109 ⅕ MIC + MOX ½ MIC,0.96
same,Synergy quotient (x/y),M. tuberculosis H37Rv; SQ109 ⅕ MIC + MOX ⅕ MIC,1
same,Synergy quotient (x/y),M. tuberculosis H37Rv; SQ109 ⅕ MIC + RIF 1/10 MIC,1
same,Synergy quotient (x/y),M. tuberculosis H37Rv; SQ109 ⅕ MIC + RIF 1/20 MIC,1
same,Synergy quotient (x/y),M. tuberculosis H37Rv; SQ109 ⅕ MIC + RIF ½ MIC,0.4
same,Synergy quotient (x/y),M. tuberculosis H37Rv; SQ109 ⅕ MIC + SM ½ MIC,0.74
same,interaction of SQ109 with isoniazid,M. tuberculosis H37Rv; listed as SQ 109,strong synergistic activity
same,interaction of SQ109 with isoniazid,M. tuberculosis H37Rv; listed as SQ109,synergy
same,interaction of SQ109 with pyrazinamide,"M. tuberculosis H37Rv; sub-MIC concentrations, PZA Test Medium, listed as SQ109",neither synergy nor additive effects; also recorded: did not show any positive interaction
same,interaction of SQ109 with rifampicin,"M. tuberculosis H37Rv; sub-MIC concentrations, listed as SQ 109",strong synergistic activity
same,interaction of SQ109 with ethambutol,M. tuberculosis H37Rv; [4],neither synergy nor additive effects; also recorded: did not show any positive interaction; also recorded: no interaction
same,interaction of SQ109 with rifampicin,M. tuberculosis H37Rv; [4],marked synergy
same,interaction of SQ109 with streptomycin,M. tuberculosis H37Rv; [4],additive effect; also recorded: only additive interaction
same,SI (Selectivity Index),cells; LD50 : MIC,16.39
same,LD50,cells; concentration at which 50% of the cells are killed,32 µM
same,LD50,cells; from uM and MW,14.4 µg/mL
same,MIC,M. tuberculosis [MTB],0.25 to 0.5 µg/mL
same,inhibition at 10 µM,[1],95%
same,MIC,[2],16 to 64 µg/mL
same,MIC,Staphylococci,16 to 32 µg/mL
same,MIC,Haemophilus influenzae,1 to 32 µg/mL
same,MIC,enterococci,16 to 64 µg/mL
same,MIC,Streptococcus pneumoniae,4 to 8 µg/mL
same,MIC,Helicobacter pylori,4 µg/mL
same,activity,M. smegmatis,much less active
same,MIC,Aspergillus fumigatus,16 µg/mL
same,inhibition of control specific binding,[3],58%
